Experiments:
[1] = test system: Ehrlich ascites cancer cells (EAT cells) tumor; test: Accumulation at cancerous site: platinum content in removed tumor by FAAS; assay type: in vivo, mouse (Balb/c); details: 1.7 mg/kg body weight, caudal vein, n=1
Method: 1×10^6 Ehrlich ascites cancer cells (EAT cells) (ATCC Number: CCl^−77TME (Ehrlich-Letter ascites)) were transplanted subcutaneously into the right femoral region of a 6-week old mouse (Balb/c, female) (n=1) and the following test was performed after 10 days. A cis-diamine dichloroplatinum (II)-containing sialyl Lewis X-modified liposome and a control of pure cis-diamine dichloroplatinum (II) were administered respectively into the caudal vein of a mouse in an amount of 150 μl, i.e. 1.7 mg/kg body weight (226 μg/ml). The resulting tumor was removed, 48 and 96 hours after administration. 0.1 g of the removed tumor tissue (0.2 to 1.0 g) was added to 1 ml of conc. nitric acid, and the mixture was agitated for 5 minutes. After static storage for 1 hour, the mixture was heated at […] in a water bath and then cooled to room temperature. 300 μl of distilled water was added to 100 μl of the nitric 5 acid-treated solution. The content of platinum therein was determined by flameless atomic absorption spectroscopy (FAAS: AA-6700 Atomic absorption flame emission spectrophotometer SIMAZU), and the platinum contents in 1 g of tumor were compared between the sample and the control. […]

[2] = test system: Ehrlich ascites cancer cells (EAT cells); test: Cell proliferation-inhibiting activity (MTT assay, WST-8 reagent); assay type: cell-based; details: 48 hours, no sample 0.480, n=3
Method: Ehrlich ascites cancer cells (EAT cells) (ATCC Number: CCl^−77TME (Ehrlich-Letter ascites)) were inoculated at 1×10^3 cell/100 μl/well (Falcon3072), and a sample was added after culture for 24 hours. The samples were prepared by diluting the cis-diamine dichloroplatinum (II)-containing unmodified liposome, the cis-diamine dichloroplatinum (II)-containing sialyl Lewis X liposome, and the cis-diamine dichloroplatinum (II)-containing anti-E-selectin antibody-modified liposome, with DMEM buffer solution (Dulbeccos's Ham Modified Eagle liquid medium, low glucose SIGMA D6046)/10% FBS (fetal calf serum SIGMA F0926)/penicillin 100 unit/ml-streptomycin 100 μg/ml (antibiotic antimycotic solution, stabilized SIGMA A5955)) to a cis-diamine dichloroplatinum (II) amount of 10 μg/ml. […] The cell count, 48 hours after addition was determined by the MTT assay of using the formazan amount as an indicator.
In addition, a solution containing only added DMEM/10% FBS was analyzed by the MTT assay as a control containing no sample.
A cell count-measuring reagent WST-8 (Kishida Chemical) was added to each well in an amount of 20 μl, and the absorbance thereof at 450 nm was determined after 2 hours. The absorbance was determined by using GE Healthcare Ultrospec-6300. […]

[3] = test system: Ehrlich ascites cancer cells (EAT cells); test: Tumor proliferation-inhibiting activity (tumor volume); assay type: in vivo, mouse (Balb/c); details: 1.5 mg/kg caudal vein on days 5, 12, 19, n=3
Method: 1×10^6 Ehrlich ascites cancer cells (EAT cells) (ATCC Number: CCl^−77TME (Ehrlich-Letter ascites)) were transplanted subcutaneously into right femoral region of 6-week old mice (Balb/c, female) (n=3), and the following tests were performed after 10 days. The cis-diamine dichloroplatinum (II)-containing sialyl Lewis X-modified liposome and the anti-E-selectin antibody-modified liposome were administered into the caudal vein of a mouse respectively in an amount of 1.5 mg/kg (200 μg/ml) on the 5th, 12th, and 19th days after transplantation. As a control, cis-diamine dichloroplatinum (II) was dissolved in physiological saline to a concentration of 200 μg/ml. The dissolved solution was administered similarly.
The size, length (A mm) and diameter (B mm), of the tumor was determined by using a digital vernier caliper (Mitsutoyo CD-S15C) on the 12th, 19th, and 29th days after tumor transplantation. The volume of the tumor (mm^3) was calculated by the following Formula: (A×B^2)×0.4.

[4] = Solubility in water; assay type: physicochemical
Method: For example, in the case of cisplatin, the solubility of cisplatin in water is 2 mg/ml (room temperature). The solubility of cisplatin nitrate is 20 mg/ml. Namely, cisplatin can be used as a platinum complex in an amount of not less than its solubility (room temperature). Ionic species forming a water-soluble or a poorly water-soluble salt with the platinum complex such as cisplatin are known in the art or can be selected properly, and thus, even if the platinum complex is that other than cisplatin, it is possible to select a platinum complex properly by considering its solubility, similarly to cisplatin. In this case, it is possible to form nitrates similarly, by adjusting the equivalent amount of silver nitrate added. In addition, concentrations of a bromide ion and an iodide ion are the same as the concentration of a chloride ion respectively; therefore, with any of these ions, the present invention can be carried out without problems. This is because the bromide ion or the iodide ion, which are higher in binding property than the chloride ion, can form a poorly water-soluble substance similarly, even when the present invention is carried out under the same conditions. Since it is believed that there is no difference in liposomal membrane permeability of each ion, the present invention can be carried out by taking these elements into consideration similarly.

[5] = Conversion of cis-diamine dinitratoplatinum (II) to cis-diamine dichloroplatinum (II) in 150 mM sodium chloride (UV absorption spectrum); assay type: physicochemical
Method: Five mg/ml of cis-diamine dinitratoplatinum (II) was dissolved in a TAPS buffer solution containing 150 mM of sodium chloride (pH: 8.4); the solution was stationarily placed at 25° C.; and the UV spectrum of the solution was determined over time (0 minute, 5 minutes, 10 minutes, 15 minutes, 30 minutes and 45 minutes). One mg of cis-diamine dichloroplatinum (II) was dissolved in 1 ml of sodium chloride-containing TAPS buffer solution, to give a control, and the UV spectrum thereof was obtained. […] There was no change in UV spectrum, when the sample was stored without movement for 45 minutes or more. […] This probably occurs because the presence of NaCl leads to the conversion of cis-diamine dinitratoplatinum (II) to the hardly water-soluble cis-diamine dichloroplatinum (II) and the subsequent precipitation of the latter.
Replacement of the nitrate ion of cis-diammine dinitratoplatinum (II) with the chloride ion in the 150 mM sodium chloride solution was studied by absorption spectroscopic method (Comparative Example 1 and FIGS. 4A and 4B).

[6] = cited from earlier work

Row | SMILES | Platinum concentration (ng/g tissue) in tumor ([1]; 48 hours after administration) [ng/g tissue] | Platinum concentration (ng/g tissue) in tumor ([1]; 96 hours after administration) [ng/g tissue] | Average absorbance (450 nm) ([2]; sample final concentration 8.30 μM) | Average absorbance (450 nm) ([2]; sample final concentration 16.60 μM) | Average tumor volume ([3]; Day 12 after tumor transplantation) [mm^3] | Average tumor volume ([3]; Day 19 after tumor transplantation) [mm^3] | Average tumor volume ([3]; Day 29 after tumor transplantation) [mm^3] | solubility in water relative to cis-diamine dichloroplatinum (II) [4] | time for conversion to cis-diamine dichloroplatinum (II) ([5]; TAPS containing 150 mM NaCl, pH 8.4, 25° C., 5 mg/ml) [min] | fraction converted to cis-diamine dichloroplatinum (II) ([5]; in the presence of 150 mM sodium chloride) [%] | solubility of cisplatin nitrate [6] [mg/mL]
1 | N.N.[Cl][Pt][Cl] [Cisplatin, cis-diammine dichloroplatinum (II)] | 361 | 49 | 0.045 | 0.027 | 63 | 63 | 501 |  |  |  | 
2 | [NH2][Pt]([NH2])([O][N+](=O)[O-])[O][N+](=O)[O-] [CDDP-3, cis-diammine dinitratoplatinum (II)] |  |  |  |  |  |  |  | approximately 10 times | 45 | ≥ 99 | 20
